According to the NIST ThermoML archive (doi:10.1016/j.jct.2009.05.004):
Numbers after ± are expanded uncertainties.

Assay: mn = molality of the nth substance listed, in mol/kg
Conditions: Liquid, Vibrating tube method

[Br-].[Br-].[Zn+2] [zinc bromide] + CCO
Conditions | mass density [kg/m3]
298.15 K, 39998 kPa, m1 = 0.1696 | 842.43 ± 0.69
298.16 K, 5021 kPa, m1 = 1.887 | 1058.5 ± 0.62
298.16 K, 15032 kPa, m1 = 0.05681 | 807.29 ± 0.65
298.16 K, 15201 kPa, m1 = 0.9305 | 937 ± 0.62
298.16 K, 15612 kPa, m1 = 0.1696 | 825.53 ± 0.65
298.16 K, 15624 kPa, m1 = 0.3043 | 845.7 ± 0.64
298.16 K, 20014 kPa, m1 = 0.4384 | 869.08 ± 0.64
298.16 K, 29932 kPa, m1 = 0.3043 | 856.21 ± 0.66
298.16 K, 34951 kPa, m1 = 0.1696 | 839.25 ± 0.68
298.16 K, 35026 kPa, m1 = 1.887 | 1081.92 ± 0.64
298.17 K, 5457 kPa, m1 = 0.3043 | 837.46 ± 0.63
298.17 K, 25045 kPa, m1 = 0.05681 | 814.8 ± 0.67
298.17 K, 25140 kPa, m1 = 1.887 | 1074.74 ± 0.63
298.17 K, 25416 kPa, m1 = 0.1696 | 832.79 ± 0.66
298.17 K, 35024 kPa, m1 = 0.9305 | 951.54 ± 0.63
298.17 K, 39854 kPa, m1 = 0.3043 | 862.75 ± 0.68
313.11 K, 20023 kPa, m1 = 0.1696 | 817.08 ± 0.66
313.11 K, 39787 kPa, m1 = 1.887 | 1072.61 ± 0.63
313.12 K, 29927 kPa, m1 = 1.887 | 1065.27 ± 0.63
313.12 K, 34843 kPa, m1 = 1.887 | 1069.01 ± 0.63
313.12 K, 39907 kPa, m1 = 0.1696 | 831.46 ± 0.7
313.13 K, 4920 kPa, m1 = 0.4384 | 843.98 ± 0.63
313.13 K, 14572 kPa, m1 = 0.1696 | 812.62 ± 0.65
313.13 K, 24931 kPa, m1 = 0.1696 | 820.9 ± 0.67
313.13 K, 25016 kPa, m1 = 1.887 | 1061.4 ± 0.62
313.13 K, 35021 kPa, m1 = 0.05681 | 810.73 ± 0.7
313.14 K, 5014 kPa, m1 = 0.05681 | 786.55 ± 0.64
313.14 K, 5102 kPa, m1 = 0.3043 | 824.32 ± 0.63
313.14 K, 9947 kPa, m1 = 0.9305 | 919.42 ± 0.62
313.14 K, 29730 kPa, m1 = 0.4384 | 864.47 ± 0.66
313.14 K, 34690 kPa, m1 = 0.4384 | 868 ± 0.66
313.14 K, 39625 kPa, m1 = 0.3043 | 851.54 ± 0.68
313.15 K, 1265 kPa, m1 = 0.05681 | 783.06 ± 0.63
313.15 K, 1326 kPa, m1 = 0.3043 | 820.84 ± 0.63
313.15 K, 1425 kPa, m1 = 1.49 | 988.5 ± 0.62
313.15 K, 5027 kPa, m1 = 1.49 | 991.85 ± 0.62
313.15 K, 9994 kPa, m1 = 1.887 | 1048.64 ± 0.62
313.15 K, 10024 kPa, m1 = 0.05681 | 791.06 ± 0.65
313.15 K, 10245 kPa, m1 = 0.3043 | 828.9 ± 0.64
313.15 K, 10627 kPa, m1 = 1.49 | 996.89 ± 0.62
313.15 K, 15329 kPa, m1 = 1.49 | 1000.98 ± 0.62
313.15 K, 19809 kPa, m1 = 0.9305 | 927.83 ± 0.63
313.15 K, 19932 kPa, m1 = 0.4384 | 856.94 ± 0.64
313.15 K, 20014 kPa, m1 = 0.3043 | 837.09 ± 0.65
313.15 K, 20065 kPa, m1 = 0.05681 | 799.53 ± 0.67
313.15 K, 20324 kPa, m1 = 1.49 | 1005.17 ± 0.62
313.15 K, 24735 kPa, m1 = 0.4384 | 860.72 ± 0.65
313.15 K, 25035 kPa, m1 = 0.9305 | 932.01 ± 0.63
313.15 K, 25647 kPa, m1 = 1.49 | 1009.46 ± 0.62
313.15 K, 29901 kPa, m1 = 0.9305 | 935.73 ± 0.63
313.15 K, 29925 kPa, m1 = 0.1696 | 824.61 ± 0.68
313.15 K, 29954 kPa, m1 = 1.49 | 1012.81 ± 0.62
313.15 K, 29964 kPa, m1 = 0.05681 | 807.13 ± 0.69
313.15 K, 34524 kPa, m1 = 0.3043 | 848.04 ± 0.67
313.15 K, 34627 kPa, m1 = 1.49 | 1016.31 ± 0.62
313.15 K, 34851 kPa, m1 = 0.1696 | 828.08 ± 0.69
313.15 K, 39846 kPa, m1 = 1.49 | 1020.06 ± 0.62
313.15 K, 39878 kPa, m1 = 0.9305 | 942.83 ± 0.63
313.15 K, 39881 kPa, m1 = 0.4384 | 871.49 ± 0.67
313.15 K, 39914 kPa, m1 = 0.05681 | 814.03 ± 0.72
313.16 K, 1622 kPa, m1 = 0.4384 | 840.91 ± 0.62
313.16 K, 9861 kPa, m1 = 0.4384 | 848.44 ± 0.63
313.16 K, 14924 kPa, m1 = 0.4384 | 852.81 ± 0.64
313.16 K, 15002 kPa, m1 = 0.9305 | 923.82 ± 0.62
313.16 K, 15021 kPa, m1 = 0.05681 | 795.37 ± 0.66
313.16 K, 15032 kPa, m1 = 0.3043 | 833 ± 0.64
313.16 K, 29952 kPa, m1 = 0.3043 | 844.75 ± 0.67
313.16 K, 34974 kPa, m1 = 0.9305 | 939.43 ± 0.63
313.17 K, 10022 kPa, m1 = 0.1696 | 808.74 ± 0.64
313.17 K, 15110 kPa, m1 = 1.887 | 1053.14 ± 0.62
313.17 K, 20144 kPa, m1 = 1.887 | 1057.41 ± 0.62
313.17 K, 25481 kPa, m1 = 0.05681 | 803.78 ± 0.68
313.17 K, 25921 kPa, m1 = 0.3043 | 841.73 ± 0.66
313.18 K, 4967 kPa, m1 = 0.9305 | 914.91 ± 0.62
313.19 K, 1520 kPa, m1 = 0.9305 | 911.69 ± 0.62
313.19 K, 5004 kPa, m1 = 1.887 | 1044.1 ± 0.62
313.2 K, 1456 kPa, m1 = 0.1696 | 801 ± 0.63
313.2 K, 4848 kPa, m1 = 0.1696 | 804.13 ± 0.63
313.24 K, 1850 kPa, m1 = 1.887 | 1041.15 ± 0.62
333.12 K, 1327 kPa, m1 = 0.1696 | 782.58 ± 0.63
333.12 K, 1898 kPa, m1 = 0.9305 | 892.88 ± 0.62
333.12 K, 4943 kPa, m1 = 1.887 | 1024.22 ± 0.62
333.12 K, 9762 kPa, m1 = 0.4384 | 830.56 ± 0.63
333.12 K, 19882 kPa, m1 = 0.4384 | 840.07 ± 0.65
333.12 K, 39840 kPa, m1 = 1.887 | 1055.35 ± 0.63
333.13 K, 5145 kPa, m1 = 0.05681 | 769.04 ± 0.64
333.13 K, 24749 kPa, m1 = 0.4384 | 844.29 ± 0.66
333.13 K, 29989 kPa, m1 = 0.9305 | 919.06 ± 0.63
333.13 K, 34942 kPa, m1 = 0.9305 | 922.93 ± 0.63
333.14 K, 5187 kPa, m1 = 0.4384 | 825.95 ± 0.63
333.14 K, 19787 kPa, m1 = 0.9305 | 910.38 ± 0.63
333.14 K, 20014 kPa, m1 = 0.3043 | 820.51 ± 0.66
333.14 K, 25451 kPa, m1 = 0.05681 | 788.08 ± 0.69
333.14 K, 34776 kPa, m1 = 1.887 | 1051.46 ± 0.62
333.15 K, 1541 kPa, m1 = 0.05681 | 765.27 ± 0.63
333.15 K, 1627 kPa, m1 = 0.3043 | 802.62 ± 0.63
333.15 K, 1698 kPa, m1 = 1.49 | 969.07 ± 0.62
333.15 K, 4776 kPa, m1 = 0.1696 | 786.15 ± 0.63
333.15 K, 5045 kPa, m1 = 1.49 | 972.54 ± 0.62
333.15 K, 5098 kPa, m1 = 0.9305 | 896.23 ± 0.62
333.15 K, 10025 kPa, m1 = 0.05681 | 773.96 ± 0.65
333.15 K, 10027 kPa, m1 = 0.9305 | 901.19 ± 0.62
333.15 K, 10046 kPa, m1 = 1.887 | 1029.4 ± 0.62
333.15 K, 10624 kPa, m1 = 1.49 | 978.11 ± 0.62
333.15 K, 15214 kPa, m1 = 1.887 | 1034.43 ± 0.62
333.15 K, 15326 kPa, m1 = 1.49 | 982.61 ± 0.62
333.15 K, 15924 kPa, m1 = 0.3043 | 816.79 ± 0.65
333.15 K, 19921 kPa, m1 = 0.05681 | 783.27 ± 0.67
333.15 K, 19984 kPa, m1 = 1.49 | 986.89 ± 0.62
333.15 K, 24658 kPa, m1 = 1.49 | 991.01 ± 0.62
